Results reported in publication PMC5772648, “Targeted NUDT5 inhibitors block hormone signaling in breast cancer cells” (Nature Communications, 2018).
pIC50: −log10 of the molar value. Like-named read-outs stand apart in the source and are kept apart here.

Columns and labels:
[1] = biological target: T1, human NUDT5 (Homo sapiens, UniProt Q9UKK9); assay: enzyme-coupled malachite green assay (MG assay), ADPR hydrolysis; assay type: biochemical; details: for pIC50: NUDT5, ADPR substrate
T1 construct: His-tag (N); made in house; host or cells: E. coli BL21 (DE3) R3 pRARE2
Source text: We next sought to develop small molecule NUDT5 inhibitors to further probe the role of NUDT5 in ADPR metabolism. A high-throughput, screening-compatible NUDT5 inhibition assay was established using slight modifications to the aforementioned MG procedure (Fig. 2a)[15],[27]. Briefly, ADPR, NUDT5 and calf intestinal alkaline phosphatase (CIP) were combined in a coupled enzymatic assay, as described in the online methods. In turn, ADPR was hydrolyzed to AMP and R5P by NUDT5, and the released R5P was further degraded to ribose and inorganic phosphate (Pi) by CIP. Free Pi was subsequently detected using the malachite green reagent. The screen was conducted using a combination of the Chemical Biology Consortium of Sweden (CBCS) primary screening set and several commercial libraries from Enamine, TimTec, Maybridge and ChemDiv. In total, ~72 000 distinct chemical entities were screened for their potential inhibition of NUDT5 at a concentration of 10 µM (Supplementary Table 1, Supplementary Fig. 2a, b). Execution of this screening campaign was split between two different occasions. The screening performance in the two screening campaigns was excellent (average z´ factors of 0.87 and 0.85, Supplementary Fig. 2c), resulting in a hit limit as defined by the average and three standard deviations of the library compound responses of 10.1 and 18.4% inhibition, respectively (Supplementary Table 1, Supplementary Fig. 2a, b). This translated to 53 and 475 hits (0.3 and 0.8% hit rate, respectively), yielding 528 total hits from the 2 separate screening occasions.
Activity of NUDT5 and MTH1 with a panel of potential substrates [2-OH-ATP, 2-OH-dATP, 8-oxo-dGDP, GDP and 8-oxo-GTP (Jena Biosciences), 8-oxo-dGTP (TriLink Biotechnologies), dATP (ThermoFisher Scientific), dGTP, GTP and ADPR (Sigma-Aldrich)] was assessed in reaction buffer (100 mM Tris Acetate pH 7.5, 40 mM NaCl, 10 mM Mg Acetate) at 22 °C. For ADPR, alkaline phosphatase from bovine intestinal mucosa (10 U/ml; Sigma-Aldrich) was added as coupled enzyme, while other substrates were coupled to E. coli pyrophosphatase (0.2 U/mL, Sigma-Aldrich). After 30 min incubation with shaking, formed inorganic phosphate was detected by addition of malachite green reagent. Absorbance at 630 nm was read after 15 min incubation with shaking using a Hidex Sense plate reader. The potency of NUDT5 inhibitors was assessed similarly as above (and in the screening campaign) by monitoring ADPR hydrolysis; details are in the Supplementary Information.
Small molecule library composition
The screen for NUDT5 inhibitors was conducted at Chemical Biology Consortium Sweden (www.cbcs.se). Two screening campaigns completed in August 2012 and in March 2013 respectively comprised a combination of in-house and commercially available libraries, amounting to a total of 75679 compounds. The commercial compounds originate from Enamine, TimTec, MayBridge and ChemDiv. The in-house libraries were donated by Biovitrum AB, Sweden (the origin and composition is described previously)2. For long-term storage, the compounds are kept frozen at - 20°C as 10 mM solutions in dimethyl sulfoxide (DMSO) under low humidity conditions in REMP 96 Storage Tube Racks in a REMP Small-Size Store™. To facilitate screening an aliquot of the stock solutions have been transferred to Labcyte 384 LDV plates (LP-0200) to enable dispensing using an Echo 550™ acoustic liquid handler (LabCyte). For both screening campaigns 40 nl of the compound solutions were dispensed directly into columns 1-22 of the 384-well assay plates (Nunc 242757), while columns 23 and 24 were reserved for controls as outlined below. The plates were sealed with a Peelable Aluminium seal (Agilent 24210-001) using a PlateLoc thermal microplate sealer (Agilent) and kept at room temperature until used. The final compound concentration in the screen was 10 µM with a final DMSO concentration of […]
Enzymatic assay applied for screening and hit confirmation […]

[2] = biological target: T2, NUDT5 in HL-60 cell lysates (Homo sapiens, UniProt Q9UKK9); assay: cell lysate CETSA (HT-CETSA); assay type: binding; details: 20 µM, 83 °C
T2 construct: endogenous in cells; host or cells: HL-60
Protocol: Target engagement in cells was determined by the cellular thermal shift assay (CETSA)[29]. Briefly, cell lysate thermal shift assays were performed with 1 × 10^6 HL-60 cells per temperature/condition. Cells were collected and washed once with PBS and resuspended in TBS with protease inhibitor cocktail (Mini cOmplete, EDTA-free, Roche) at 60 µL/1 × 10^6 cells. The cells were then aliquoted and lysed by freeze-thawing three times with 3-min incubations (3x, 3 min.+3 min.) using an ethanol/dry ice bath and water bath at 37 °C. The lysates were then centrifuged at 20,000×g for 20 min at 4 °C to remove cellular debris. Supernatants were then transferred to PCR strip tubes and treated with 0.5 µL DMSO (0.8% v/v final) or 20 µM inhibitor for 20 min at room temperature. Lysates with compounds were heated at the indicated temperature in a Veriti Thermal Cycler (Applied Biosystems) for 3 min, then cooled for another 3 min at room temperature. They were then centrifuged at 20 000 × g for 20 min at 4 °C to pellet protein aggregates and 45 µL was removed and prepared for western blotting analysis.

[3] = biological target: T3, NUDT5 in intact HL-60 cells (Homo sapiens, UniProt Q9UKK9); assay: intact cell CETSA; assay type: cell-based; details: 20 µM, 83 °C
T3 construct: endogenous in cells; host or cells: HL-60
Protocol: For CETSA experiments with cells treated in culture, 1 × 10^6 HL-60 were treated with DMSO (0.1 % v/v final) or 20 µM compound for 3 h at 37 °C and 5% CO2 in a humidified incubator. T47D^WT cells were treated instead with 80 µM TH1659, 15 µM TH5423/5424 and 1.5 µM TH5427. The cells were harvested, washed twice with PBS and resuspended in TBS with protease inhibitors, as above. Heating was identical as before, except that immediately following heating, the cell suspensions were snap frozen in a dry ice/ethanol bath and freeze-thawed, as previously, to lyse cells. Centrifugation at 20 000 × g for 20 min at 4 °C removed cellular debris and protein aggregates, and lysates were prepared for western blotting.

[4] = biological target: T4, purified NUDT5 (Homo sapiens, UniProt Q9UKK9); assay: differential scanning fluorimetry (DSF); assay type: binding; details: 20 µM compound; for Tm: DMSO 74; for ΔTm at 20 µM: read-out: shift in melting temperature (Tm)
T4 construct: His-tag (N); made in house; host or cells: E. coli BL21 (DE3) R3 pRARE2
Protocol: Differential scanning fluorimetry (DSF)[5],[47] was performed with 5 µM purified NUDT5, 20 µM NUDT5 inhibitor and 5x Sypro Orange added per well added to a 96-well PCR plate. Each experiment was performed in duplicate. Temperature gradients from 25 to 95 °C (increasing at a rate of 1 °C per minute) were completed with readings every minute on a CFX96 Real-Time PCR machine (Bio-Rad). Melting temperatures were determined as the minimum of the negative first derivative plots with CFX Maestro software (Bio-Rad).

[5] = solubility; assay type: physicochemical
[6] = read-out: MG assay IC50 (Biochemical IC50)

Structure (SMILES): Cc1cccc(-c2nnc(Cn3cnc4c3c(=O)n(C)c(=O)n4C)o2)c1 [TH1167]
- pIC50 ([1]; read-out: MG assay IC50): 6.24
- NUDT5 stabilization in cell lysates [2]: did not show sufficient target engagement
- NUDT5 stabilization in intact cells [3]: did not show sufficient target engagement

Structure (SMILES): O=c1cc(N2CCOCC2)oc2c(-c3ccccc3)cccc12 [LY294002, reference compound]
- pIC50 ([1]; read-out: MG assay IC50): < 4.00

Structure (SMILES): O=c1cc(-c2ccccc2)oc2ccccc12 [flavone, reference compound]
- pIC50 ([1]; read-out: MG assay IC50): < 4.00

Structure (SMILES): Cc1cccc(-c2nnc(Cn3c(N(C)C)nc4c3c(=O)n(C)c(=O)n4C)o2)c1 [TH1713]
- Tm [4]: 79 °C
- ΔTm at 20 µM [4]: 5 °C
- fold greater potency over TH1167 ([1]; MG assay): more than 8 fold
- pIC50 [1, 6]: 7.15
- NUDT5 stabilization in intact cells [3]: only TH1533 showed activity by CETSA in intact cells
- solubility [5]: very poor solubility

Structure (SMILES): Cn1c(=O)c2c(ncn2Cc2nnc(-c3ccc(Cl)c(Cl)c3)o2)n(C)c1=O [TH1533]
- Tm [4]: 79 °C
- ΔTm at 20 µM [4]: 5 °C
- MG assay potency compared with TH1713 [1]: equipotent with TH1713
- pIC50 [1, 6]: 7.15
- NUDT5 stabilization in intact cells [3]: showed activity by CETSA in intact cells
- solubility [5]: very poor solubility

Structure (SMILES): COc1ccc2c(c[n+](C)c3c4cc5c(cc4ccc23)OCO5)c1OC [chelerythrine, reference compound]
- pIC50 ([1]; read-out: MG assay IC50): < 4.00

Structure (SMILES): O=C(O)/C=C/c1ccc(O)cc1 [p-coumaric acid, reference compound]
- pIC50 ([1]; read-out: MG assay IC50): < 4.00
